According to US12077503B2, “Substituted cyclic amides and their use as herbicides” (FMC CORPORATION, priority 2015, dated 2024):

Tests used:
Experiment in all cases: Test C preemergence
Format in all cases: in vivo
[1] = system: crabgrass, large (large crabgrass, Digitaria sanguinalis); conditions: for Plant response rating, Crabgrass, Large: scale 0 to 100, 0 no effect, 100 complete control
In short: (§1)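 Assessment: visual, 13–15 d after treatment, 0 (no effect) to 100 (complete control) relative to controls. Treatment: preemergence to seeds in loam-sand soil, or postemergence to 1- to 4-leaf plants in peat-based medium. Formulation: non-phytotoxic solvent mixture with surfactant.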

[2] = system: pigweed (Amaranthus retroflexus); conditions: for Plant response rating, Pigweed: scale 0 to 100, 0 no effect, 100 complete control
In short: as §1

[3] = system: soybean (Glycine max); conditions: for Plant response rating, Soybean: scale 0 to 100, 0 no effect, 100 complete control
In short: as §1

[4] = system: morningglory (Ipomoea coccinea); conditions: for Plant response rating, Morningglory: scale 0 to 100, 0 no effect, 100 complete control
In short: as §1

[5] = system: velvetleaf (Abutilon theophrasti); conditions: for Plant response rating, Velvetleaf: scale 0 to 100, 0 no effect, 100 complete control
In short: as §1

[6] = system: foxtail, giant (giant foxtail, Setaria faberii); conditions: for Plant response rating, Foxtail, Giant: scale 0 to 100, 0 no effect, 100 complete control
In short: as §1

[7] = system: Galium (catchweed bedstraw, Galium aparine); conditions: for Plant response rating, Galium: scale 0 to 100, 0 no effect, 100 complete control
In short: as §1

[8] = system: oilseed rape (Brassica napus); conditions: for Plant response rating, Oilseed Rape: scale 0 to 100, 0 no effect, 100 complete control
In short: as §1

[9] = system: ryegrass, Italian (Italian ryegrass, Lolium multiflorum); conditions: for Plant response rating, Ryegrass, Italian: scale 0 to 100, 0 no effect, 100 complete control
In short: as §1

[10] = system: wheat (winter wheat, Triticum aestivum); conditions: for Plant response rating, Wheat: scale 0 to 100, 0 no effect, 100 complete control
In short: as §1

[11] = system: corn (Zea mays); conditions: for Plant response rating, Corn: scale 0 to 100, 0 no effect, 100 complete control
In short: as §1

[12] = system: nutsedge, yellow (yellow nutsedge, Cyperus esculentus); conditions: for Plant response rating, Nutsedge, Yellow: scale 0 to 100, 0 no effect, 100 complete control
In short: as §1

[13] = system: johnsongrass (Sorghum halepense); conditions: for Plant response rating, Johnsongrass: scale 0 to 100, 0 no effect, 100 complete control
In short: as §1

[14] = system: lambsquarters (Chenopodium album); conditions: for Plant response rating, Lambsquarters: scale 0 to 100, 0 no effect, 100 complete control
In short: as §1

[15] = system: barnyardgrass (Echinochloa crus-galli); conditions: for Plant response rating, Barnyardgrass: scale 0 to 100, 0 no effect, 100 complete control
In short: as §1

[16] = system: ragweed (common ragweed, Ambrosia elatior); conditions: for Plant response rating, Ragweed: scale 0 to 100, 0 no effect, 100 complete control
In short: as §1

[17] = system: blackgrass (Alopecurus myosuroides); conditions: for Plant response rating, Blackgrass: scale 0 to 100, 0 no effect, 100 complete control
In short: as §1

[18] = 31 g ai/ha, 0 is no effect, 100 is complete control

O=C1NCC(c2cccc(OC(F)(F)C(F)F)c2)C1C(=O)Nc1ccc(F)c(F)c1F (racemic) [Compound 698]
Plant response rating (scale of 0 to 100), Crabgrass, Large [1, 18]: 90
Plant response rating, Crabgrass, Large ([1]; 62 g ai/ha): 90
Plant response rating, Crabgrass, Large ([1]; 125 g ai/ha): 95
Plant response rating, Crabgrass, Large ([1]; 250 g ai/ha): 95
Plant response rating (scale of 0 to 100), Pigweed [2, 18]: 75
Plant response rating, Pigweed ([2]; 62 g ai/ha): 85
Plant response rating, Pigweed ([2]; 125 g ai/ha): 90
Plant response rating, Pigweed ([2]; 250 g ai/ha): 90
Plant response rating (scale of 0 to 100), Soybean [3, 18]: 35
Plant response rating, Soybean ([3]; 62 g ai/ha): 0
Plant response rating, Soybean ([3]; 125 g ai/ha): 0
Plant response rating, Soybean ([3]; 250 g ai/ha): 0
Plant response rating (scale of 0 to 100), Morningglory [4, 18]: 0
Plant response rating, Morningglory ([4]; 62 g ai/ha): 0
Plant response rating, Morningglory ([4]; 125 g ai/ha): 20
Plant response rating, Morningglory ([4]; 250 g ai/ha): 25
Plant response rating (scale of 0 to 100), Velvetleaf [5, 18]: 25
Plant response rating, Velvetleaf ([5]; 62 g ai/ha): 40
Plant response rating, Velvetleaf ([5]; 125 g ai/ha): 50
Plant response rating, Velvetleaf ([5]; 250 g ai/ha): 65
Plant response rating (scale of 0 to 100), Foxtail, Giant [6, 18]: 85
Plant response rating, Foxtail, Giant ([6]; 62 g ai/ha): 90
Plant response rating, Foxtail, Giant ([6]; 125 g ai/ha): 85
Plant response rating, Foxtail, Giant ([6]; 250 g ai/ha): 90
Plant response rating (scale of 0 to 100), Galium [7, 18]: 100
Plant response rating, Galium ([7]; 62 g ai/ha): 90
Plant response rating, Galium ([7]; 125 g ai/ha): 100
Plant response rating, Galium ([7]; 250 g ai/ha): 90
Plant response rating (scale of 0 to 100), Oilseed Rape [8, 18]: 0
Plant response rating, Oilseed Rape ([8]; 62 g ai/ha): 30
Plant response rating, Oilseed Rape ([8]; 125 g ai/ha): 80
Plant response rating, Oilseed Rape ([8]; 250 g ai/ha): 85
Plant response rating (scale of 0 to 100), Ryegrass, Italian [9, 18]: 0
Plant response rating, Ryegrass, Italian ([9]; 62 g ai/ha): 0
Plant response rating, Ryegrass, Italian ([9]; 125 g ai/ha): 0
Plant response rating, Ryegrass, Italian ([9]; 250 g ai/ha): 30
Plant response rating (scale of 0 to 100), Wheat [10, 18]: 0
Plant response rating, Wheat ([10]; 62 g ai/ha): 0
Plant response rating, Wheat ([10]; 125 g ai/ha): 0
Plant response rating, Wheat ([10]; 250 g ai/ha): 30
Plant response rating (scale of 0 to 100), Corn [11, 18]: 40
Plant response rating, Corn ([11]; 62 g ai/ha): 70
Plant response rating, Corn ([11]; 125 g ai/ha): 80
Plant response rating, Corn ([11]; 250 g ai/ha): 80
Plant response rating (scale of 0 to 100), Nutsedge, Yellow [12, 18]: 0
Plant response rating, Nutsedge, Yellow ([12]; 62 g ai/ha): 0
Plant response rating, Nutsedge, Yellow ([12]; 125 g ai/ha): 0
Plant response rating, Nutsedge, Yellow ([12]; 250 g ai/ha): 0
Plant response rating (scale of 0 to 100), Johnsongrass [13, 18]: 75
Plant response rating, Johnsongrass ([13]; 62 g ai/ha): 75
Plant response rating, Johnsongrass ([13]; 125 g ai/ha): 80
Plant response rating, Johnsongrass ([13]; 250 g ai/ha): 85
Plant response rating (scale of 0 to 100), Lambsquarters [14, 18]: 10
Plant response rating, Lambsquarters ([14]; 62 g ai/ha): 35
Plant response rating, Lambsquarters ([14]; 125 g ai/ha): 70
Plant response rating, Lambsquarters ([14]; 250 g ai/ha): 80
Plant response rating (scale of 0 to 100), Barnyardgrass [15, 18]: 75
Plant response rating, Barnyardgrass ([15]; 62 g ai/ha): 90
Plant response rating, Barnyardgrass ([15]; 125 g ai/ha): 90
Plant response rating, Barnyardgrass ([15]; 250 g ai/ha): 90
Plant response rating (scale of 0 to 100), Ragweed [16, 18]: 70
Plant response rating, Ragweed ([16]; 62 g ai/ha): 40
Plant response rating, Ragweed ([16]; 125 g ai/ha): 40
Plant response rating, Ragweed ([16]; 250 g ai/ha): 55
Plant response rating (scale of 0 to 100), Blackgrass [17, 18]: 0
Plant response rating, Blackgrass ([17]; 62 g ai/ha): 0
Plant response rating, Blackgrass ([17]; 125 g ai/ha): 50
Plant response rating, Blackgrass ([17]; 250 g ai/ha): 70
